biological target: STAT3 (Homo sapiens (Human), UniProt P40763); assay: Fluorescence polarization assay, inhibition of binding to STAT3; details: inhibition of binding to STAT3 in a fluorescence polarization assay; read-out: Ki (FP)
Protocol: The fluorescent polarization experiments were performed on an Infinite M1000 (Tecan, Crailsheim, Germany). All assays were performed in the same buffer conditions of 50 mM NaCl, 10 mM Hepes, pH 7.5, 1 mM EDTA, and 2 mM dithiothreitol. Fluorescent-labelled peptides were kept at a final concentration of 10nM in buffered solution. […] of labelled peptides were added to […] of a 300 nM STAT3 protein solution (provided by SignalChem in 50 mM Tris-HCl, pH 7.5, 150 mM NaCl, 0.25 mM DTT, 0.1 mM PMSF, 25% glycerol and stored at −80° C.). Inhibitory molecules were dissolved in pure DMSO and diluted using buffer solution to produce four final concentrations ([…]). 7.5 μL of the inhibitory molecule solution was mixed with the STAT3 protein and labelled peptide solution in black 384-flat well microplates (Coming), and incubated for 15-30 minutes. The M1000 performed a shaking cycle and then read the plates. IC50′s were derived from the output using the curve-fitting software OriginPro 8 (Northampton, MA). The FP data was modelled by the following equation:
[formula] where X was the concentration of inhibitor and ρwas the corresponding fluorescence at that concentration. The free parameter was half the maximal inhibitory concentration (IC50) and the limiting values was the maximal measured fluorescence polarization (ρ1) and the minimal fluorescence polarization (ρ2). Origin curve fitting software utilizes the Levenberg-Marquardt algorithm and reduced chi-square criterion for convergence. The inhibitor dissociation constant, Ki, was calculated from the derived IC50 values, as per the following formula: […]
Further details of the fluorescence polarization assay are as described previously (Zhang X, et al. (2010) A novel small-molecule disrupts Stat3 SH2domainphosphotyrosine interactions and Stat3-dependent tumor processes. Biochem Pharmacol 79: 1398-1409).

Sequence of STAT3 (P40763 whole entry): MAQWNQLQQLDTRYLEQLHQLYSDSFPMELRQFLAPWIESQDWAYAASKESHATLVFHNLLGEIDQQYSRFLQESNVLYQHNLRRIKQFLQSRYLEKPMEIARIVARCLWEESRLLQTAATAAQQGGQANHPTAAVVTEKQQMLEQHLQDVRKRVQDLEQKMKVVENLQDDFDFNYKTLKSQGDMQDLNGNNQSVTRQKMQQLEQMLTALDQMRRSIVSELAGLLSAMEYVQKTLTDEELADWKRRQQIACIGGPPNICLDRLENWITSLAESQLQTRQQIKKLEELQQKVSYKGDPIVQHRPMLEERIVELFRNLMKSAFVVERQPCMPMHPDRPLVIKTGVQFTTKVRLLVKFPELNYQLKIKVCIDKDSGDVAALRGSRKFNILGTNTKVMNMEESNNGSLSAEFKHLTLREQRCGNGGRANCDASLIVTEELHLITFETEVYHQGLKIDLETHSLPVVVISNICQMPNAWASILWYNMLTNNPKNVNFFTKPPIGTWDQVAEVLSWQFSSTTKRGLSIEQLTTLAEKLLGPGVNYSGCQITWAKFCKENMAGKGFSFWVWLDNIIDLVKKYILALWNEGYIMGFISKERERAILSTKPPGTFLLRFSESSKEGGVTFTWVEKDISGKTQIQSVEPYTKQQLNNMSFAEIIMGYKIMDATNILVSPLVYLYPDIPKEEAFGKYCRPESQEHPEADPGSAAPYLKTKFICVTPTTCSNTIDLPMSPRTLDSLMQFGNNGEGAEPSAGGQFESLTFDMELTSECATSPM

Structure (SMILES)	Ki
Cc1ccc(S(=O)(=O)N(CC(=O)N(Cc2ccc(C3CCCCC3)cc2)c2ccc(C(=O)O)c(O)c2)Cc2ccccc2C)cc1 [BP2-047]	2.6 ± 0.2 µM
Cc1ccc(S(=O)(=O)N(CC(=O)N(Cc2ccc(C3CCCCC3)cc2)c2ccc(C(=O)O)c(O)c2)Cc2ccccn2)cc1 [BP2-131]	22.6 ± 3 µM
Cc1ccc(S(=O)(=O)N(CC(=O)N(Cc2ccc(C3CCCCC3)cc2)c2ccc(C(=O)O)c(O)c2)Cc2c(F)c(F)c(F)c(F)c2F)cc1 [BP2-068]	4.5 ± 1.9 µM
Cc1ccc(S(=O)(=O)N(CC(=O)N(Cc2ccc(C3CCCCC3)cc2)c2ccc(C(=O)O)c(O)c2)Cc2c(F)c(F)cc(F)c2F)cc1 [BP2-121]	11.4 ± 0.4 µM
Cc1ccc(S(=O)(=O)N(CC(=O)N(Cc2ccc(C3CCCCC3)cc2)c2ccc(C(=O)O)c(O)c2)Cc2c(F)cc(F)c(F)c2F)cc1 [BP2-119]	7.7 ± 1 µM
Cc1ccc(S(=O)(=O)N(CC(=O)N(Cc2ccc(C3CCCCC3)cc2)c2ccc(C(=O)O)c(O)c2)Cc2cc(F)c(F)c(F)c2F)cc1 [BP2-120]	11.1 ± 0.6 µM
Cc1ccc(S(=O)(=O)N(CC(=O)N(Cc2ccc(C3CCCCC3)cc2)c2ccc(C(=O)O)c(O)c2)Cc2cccc(Cl)c2)cc1 [SH3-077]	3 ± 4.1 µM
Cc1ccc(S(=O)(=O)N(CC(=O)N(Cc2ccc(C3CCCCC3)cc2)c2ccc(C(=O)O)c(O)c2)Cc2ccccc2Cl)cc1 [SH3-079]	7.9 ± 0.3 µM
Cc1ccc(S(=O)(=O)N(CC(=O)N(Cc2ccc(C3CCCCC3)cc2)c2ccc(C(=O)O)c(O)c2)Cc2ccccc2[N+](=O)[O-])cc1 [BP3-020]	5 ± 6.5 µM
C=CCN(CC(=O)N(Cc1ccc(C2CCCCC2)cc1)c1ccc(C(=O)O)c(O)c1)S(=O)(=O)c1ccc(C)cc1 [BP2-125]	27.9 ± 5 µM
Cc1ccc(S(=O)(=O)N(CC(=O)N(Cc2ccc(C3CCCCC3)cc2)c2ccc(C(=O)O)c(O)c2)Cc2ccccc2N)cc1 [BP3-018]	12 ± 0.5 µM
Cc1ccc(S(=O)(=O)N(CC(=O)N(Cc2ccc(C3CCCCC3)cc2)c2ccc(C(=O)O)c(O)c2)Cc2ccc(F)cc2)cc1 [BP2-065]	3.8 ± 1.6 µM
Cc1ccc(S(=O)(=O)N(CC(=O)N(Cc2ccc(C3CCCCC3)cc2)c2ccc(C(=O)O)c(O)c2)Cc2ccc(F)cc2C(F)(F)F)cc1 [XW1-075]	5.5 ± 0.4 µM
Cc1ccc(S(=O)(=O)N(CC(=O)N(Cc2ccc(C3CCCCC3)cc2)c2ccc(C(=O)O)c(O)c2)Cc2ccccc2C(F)(F)F)cc1 [BP2-061]	1.8 ± 2.3 µM
Cc1ccc(S(=O)(=O)N2CCC[C@@H]2C(=O)N(Cc2ccc(C3CCCCC3)cc2)c2ccc(C(=O)O)c(O)c2)cc1 [BP2-032]	> 50 µM
Cc1ccc(S(=O)(=O)N(CC(=O)N(Cc2ccc(C3CCCCC3)cc2)c2ccc(C(=O)O)c(O)c2)Cc2cccc(F)c2)cc1 [BP2-066]	4.4 ± 0.3 µM
Cc1ccc(S(=O)(=O)N(C)CC(=O)N(Cc2ccc(C3CCN(C(=O)OC(C)(C)C)CC3)cc2)c2ccc(C(=O)O)c(O)c2)cc1 [Compound 27KC, 4-(N-(4-(1-(tert-butoxycarbonyl)piperidin-4-yl)benzyl)-2-(N,4-dimethylphenylsulfon-amido)acetamido)-2-hydroxybenzoic acid]	18.7 ± 1.4 µM
Cc1ccc(S(=O)(=O)N(CC(=O)N(Cc2ccc(C3CCCCC3)cc2)c2ccc(C(=O)O)c(O)c2)Cc2ccc(Cl)cc2)cc1 [SH3-076]	3.1 ± 0.1 µM
Cc1ccc(S(=O)(=O)N(CC(=O)N(Cc2ccc(C3CCCCC3)cc2)c2ccc(C(=O)O)c(O)c2)Cc2ccc3ccccc3c2)cc1 [BP2-057]	2.5 ± 1 µM
Cc1ccc(CN(CC(=O)N(Cc2ccc(C3CCCCC3)cc2)c2ccc(C(=O)O)c(O)c2)S(=O)(=O)c2ccc(C)cc2)cc1 [BP2-028]	> 50 µM
Cc1ccc(S(=O)(=O)N(CC(=O)N(Cc2ccc(C3CCCCC3)cc2)c2ccc(C(=O)O)c(O)c2)Cc2ccc(SC(F)(F)F)cc2)cc1 [XW1-057]	4.8 ± 0.6 µM
Cc1ccc(S(=O)(=O)N(CC(=O)N(Cc2ccc(C3CCCCC3)cc2)c2ccc(C(=O)O)c(O)c2)Cc2cccc(C#N)c2)cc1 [BP3-023]	6.2 ± 0.8 µM

Structure (SMILES)	Ki
Cc1ccc(S(=O)(=O)N(CC(=O)N(Cc2ccc(C3CCCCC3)cc2)c2ccc(C(=O)O)c(O)c2)Cc2ccc(OC(F)(F)F)cc2)cc1 [XW1-077]	5.9 ± 0.6 µM
CCOC(=O)c1ccc(CN(CC(=O)N(Cc2ccc(C3CCCCC3)cc2)c2ccc(C(=O)O)c(O)c2)S(=O)(=O)c2ccc(C)cc2)cc1 [XW1-053]	3.8 ± 1.5 µM
CCCN(CC(=O)N(Cc1ccc(C2CCCCC2)cc1)c1ccc(C(=O)O)c(O)c1)S(=O)(=O)c1ccc(C)cc1 [BP2-033]	8.9 ± 1.4 µM
Cc1ccc(S(=O)(=O)N(CC(=O)N(Cc2ccc(C3CCCCC3)cc2)c2ccc(C(=O)O)c(O)c2)Cc2ccc([N+](=O)[O-])cc2)cc1 [BP3-014]	5.5 ± 3.7 µM
Cc1ccc(S(=O)(=O)N(CC(=O)N(Cc2ccc(C3CCCCC3)cc2)c2ccc(C(=O)O)c(O)c2)CC(C)C)cc1 [BP2-046]	8.3 ± 0.3 µM
Cc1ccc(S(=O)(=O)N(CC(=O)N(Cc2ccc(C3CCCCC3)cc2)c2ccc(C(=O)O)c(O)c2)Cc2ccccc2F)cc1 [BP2-067]	5.3 ± 0.3 µM
Cc1ccc(S(=O)(=O)N(CC(N)=O)CC(=O)N(Cc2ccc(C3CCCCC3)cc2)c2ccc(C(=O)O)c(O)c2)cc1 [BP2-124]	48.7 ± 14.2 µM
Cc1ccc(S(=O)(=O)N(CC(=O)N(Cc2ccc(C3CCCCC3)cc2)c2ccc(C(=O)O)c(O)c2)Cc2cccc(N)c2)cc1 [BP3-016]	6.2 ± 1.6 µM
Cc1ccc(S(=O)(=O)N(CC(=O)N(Cc2ccc(C3CCCCC3)cc2)c2ccc(C(=O)O)c(O)c2)Cc2ccccc2)cc1 [BP2-027]	7.2 ± 2.2 µM
Cc1ccc(S(=O)(=O)N(CC(=O)N(Cc2ccc(C3CCCCC3)cc2)c2ccc(C(=O)O)c(O)c2)Cc2cccc(OC(F)(F)F)c2)cc1 [XW1-055]	4 ± 1.1 µM
COC(=O)c1ccc(CN(CC(=O)N(Cc2ccc(C3CCCCC3)cc2)c2ccc(C(=O)O)c(O)c2)S(=O)(=O)c2ccc(C)cc2)cc1 [XW1-083]	5.8 ± 0.6 µM
Cc1ccc(S(=O)(=O)N2CCC[C@H]2C(=O)N(Cc2ccc(C3CCCCC3)cc2)c2ccc(C(=O)O)c(O)c2)cc1 [BP2-029]	33 ± 22 µM
Cc1ccc(S(=O)(=O)N(CC(=O)N(Cc2ccc(C3CCCCC3)cc2)c2ccc(C(=O)O)c(O)c2)Cc2cccc(C)c2)cc1 [BP2-056]	2.6 ± 0.2 µM
Cc1ccc(S(=O)(=O)N(CC(=O)N(Cc2ccc(C3CCCCC3)cc2)c2ccc(C(=O)O)c(O)c2)Cc2cccc(C(F)(F)F)c2)cc1 [XW1-079]	5.1 ± 0.4 µM
Cc1ccc(S(=O)(=O)N(CC(=O)N(Cc2ccc(C3CCCCC3)cc2)c2ccc(C(=O)O)c(O)c2)Cc2ccccc2C#N)cc1 [BP3-024]	11.3 ± 0.8 µM
Cc1ccc(S(=O)(=O)N(CC(=O)N(Cc2ccc(C3CCCCC3)cc2)c2ccc(C(=O)O)c(O)c2)Cc2ccc(C#N)cc2)cc1 [BP3-021]	4.3 ± 0.7 µM
Cc1ccc(S(=O)(=O)N(CC(=O)N(Cc2ccc(C3CCCCC3)cc2)c2ccc(C(=O)O)c(O)c2)Cc2ccccc2OC(F)(F)F)cc1 [XW1-061]	3.6 ± 0.5 µM
COC(=O)c1cccc(CN(CC(=O)N(Cc2ccc(C3CCCCC3)cc2)c2ccc(C(=O)O)c(O)c2)S(=O)(=O)c2ccc(C)cc2)c1 [XW1-081]	9.2 ± 0.8 µM
Cc1ccc(S(=O)(=O)N(CC(=O)N(Cc2ccc(C3CCCCC3)cc2)c2ccc(C(=O)O)c(O)c2)Cc2cccnc2)cc1 [BP2-130]	25.4 ± 0.8 µM
Cc1ccc(S(=O)(=O)N(CC(=O)N(Cc2ccc(C3CCCCC3)cc2)c2ccc(C(=O)O)c(O)c2)Cc2ccncc2)cc1 [BP2-086]	23.3 ± 0.7 µM
Cc1ccc(S(=O)(=O)N(CC(=O)N(Cc2ccc(C3CCCCC3)cc2)c2ccc(C(=O)O)c(O)c2)Cc2cccc([N+](=O)[O-])c2)cc1 [BP3-019]	2.5 ± 2.2 µM

— patent publication US10196373B2, “Substituted 2-hydroxy-4-(2-(phenylsulfonamido)acetamido)benzoic acid analogs as inhibitors of STAT protein” (University of Central Florida Research Foundation, Inc., priority 2010, dated 2019)
